Assay results reported in ChEMBL document CHEMBL1201861, “Genomics of Drug Sensitity in Cancer screening data, Wellcome Trust Sanger Institute”.

Columns and labels:
Assay in all cases: cells
DBTRG-05MG = format: functional, cell-based, Homo sapiens; details: Homo sapiens, DBTRG-05MG;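 further: cell viability assay measuring growth inhibition of human DBTRG-05MG cells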
Description: SANGER: Inhibition of human DBTRG-05MG cell growth in a cell viability assay.

DoTc2-4510 = format: functional, cell-based, Homo sapiens; details: Homo sapiens, DoTc2-4510
EB-3 = format: functional, cell-based, Homo sapiens; details: Homo sapiens, EB-3;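 further: human EB-3 cells, growth inhibition read out via a cell viability assay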
Description: SANGER: Inhibition of human EB-3 cell growth in a cell viability assay.

EGI-1 = format: functional, cell-based, Homo sapiens; details: Homo sapiens, EGI-1;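 further: cell viability readout used to gauge growth inhibition of EGI-1 cells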
Description: SANGER: Inhibition of human EGI-1 cell growth in a cell viability assay.

G-361 = format: functional, cell-based, Homo sapiens; details: Homo sapiens, G-361
GDM-1 = format: functional, cell-based, Homo sapiens; details: Homo sapiens, GDM-1;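 further: cell viability readout used to measure growth inhibition of human GDM-1 cells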
Description: SANGER: Inhibition of human GDM-1 cell growth in a cell viability assay.

HCC1569 = format: functional, cell-based, Homo sapiens; details: Homo sapiens, HCC1569;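 further: growth inhibition of human HCC1569 cells, read out with a cell viability assay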
Description: SANGER: Inhibition of human HCC1569 cell growth in a cell viability assay.

HT-1080 = format: functional, cell-based, Homo sapiens; details: Homo sapiens, HT-1080
Description: SANGER: Inhibition of human HT-1080 cell growth in a cell viability assay.

IGR-1 = format: functional, cell-based, Homo sapiens; details: Homo sapiens, IGR-1;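 further: growth inhibition of human IGR-1 cells, read out with a cell viability assay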
Description: SANGER: Inhibition of human IGR-1 cell growth in a cell viability assay.

IGROV-1 = format: functional, cell-based, Homo sapiens; details: Homo sapiens, IGROV-1;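 further: reduction of IGROV-1 cell growth, read out with a viability assay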
Description: SANGER: Inhibition of human IGROV-1 cell growth in a cell viability assay.

KMS-12-PE = format: functional, cell-based, Homo sapiens; details: Homo sapiens, KMS-12-PE;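 further: growth inhibition of human KMS-12-PE cells, measured with a cell viability assay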
Description: SANGER: Inhibition of human KMS-12-PE cell growth in a cell viability assay.

KYSE-410 = format: functional, cell-based, Homo sapiens; details: Homo sapiens, KYSE-410;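 further: growth inhibition of KYSE-410 cells, measured through a cell viability readout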
Description: SANGER: Inhibition of human KYSE-410 cell growth in a cell viability assay.

KYSE-510 = format: functional, cell-based, Homo sapiens; details: Homo sapiens, KYSE-510;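 further: cell viability readout used to measure how strongly growth of the cell line is suppressed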
Description: SANGER: Inhibition of human KYSE-510 cell growth in a cell viability assay.

KYSE-520 cell line = format: functional, cell-based, Homo sapiens; details: Homo sapiens, KYSE-520;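 further: growth inhibition of human KYSE-520 cells, read out with a viability assay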
Description: SANGER: Inhibition of human KYSE-520 cell growth in a cell viability assay.

LOUCY = format: functional, cell-based, Homo sapiens; details: Homo sapiens, LOUCY;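 further: growth inhibition of human LOUCY cells, read out with a cell viability assay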
Description: SANGER: Inhibition of human LOUCY cell growth in a cell viability assay.

LU-165 = format: functional, cell-based, Homo sapiens; details: Homo sapiens, LU-165
Description: SANGER: Inhibition of human LU-165 cell growth in a cell viability assay.

LU-99A = format: functional, cell-based, Homo sapiens; details: Homo sapiens, LU-99A;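 further: growth inhibition of LU-99A cells, read out with a cell viability assay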
Description: SANGER: Inhibition of human LU-99A cell growth in a cell viability assay.

LoVo = format: functional, cell-based, Homo sapiens; details: Homo sapiens, LoVo;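 further: growth inhibition of human LoVo cells, read out with a cell viability assay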
Description: SANGER: Inhibition of human LoVo cell growth in a cell viability assay.

M14 = format: functional, cell-based, Homo sapiens; details: Homo sapiens, M14;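 further: growth inhibition of M14 cells, read out with a cell viability assay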
Description: SANGER: Inhibition of human M14 cell growth in a cell viability assay.

MDA-MB-157 = format: functional, cell-based, Homo sapiens; details: Homo sapiens, MDA-MB-157
Description: SANGER: Inhibition of human MDA-MB-157 cell growth in a cell viability assay.

MKN-28 = format: functional, cell-based, Homo sapiens; details: Homo sapiens, MKN-28;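 further: cell viability assay read-out, IC50 reflects suppression of growth of human MKN-28 cells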
Description: SANGER: Inhibition of human MKN28 cell growth in a cell viability assay.

NCI-H1963 = format: functional, cell-based, Homo sapiens; details: Homo sapiens, NCI-H1963;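 further: cell growth inhibition of the human line, determined with a cell viability assay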
Description: SANGER: Inhibition of human NCI-H1963 cell growth in a cell viability assay.

NCI-H2030 = format: functional, cell-based, Homo sapiens; details: Homo sapiens, NCI-H2030;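 further: growth inhibition of human NCI-H2030 cells, read out by a cell viability assay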
Description: SANGER: Inhibition of human NCI-H2030 cell growth in a cell viability assay.

NCI-H2052 = format: functional, cell-based, Homo sapiens; details: Homo sapiens, NCI-H2052;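 further: growth inhibition of NCI-H2052 cells, read out with a cell viability assay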
Description: SANGER: Inhibition of human NCI-H2052 cell growth in a cell viability assay.

NCI-H2141 = format: functional, cell-based, Homo sapiens; details: Homo sapiens, NCI-H2141;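 further: growth inhibition of human NCI-H2141 cells, read out with a cell viability assay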
Description: SANGER: Inhibition of human NCI-H2141 cell growth in a cell viability assay.

NCI-H2170 = format: functional, cell-based, Homo sapiens; details: Homo sapiens, NCI-H2170;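 further: cell viability assay measuring growth inhibition of human NCI-H2170 cancer cells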
Description: SANGER: Inhibition of human NCI-H2170 cell growth in a cell viability assay.

NCI-H596 = format: functional, cell-based, Homo sapiens; details: Homo sapiens, NCI-H596;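 further: growth inhibition of NCI-H596 cells, read out with a cell viability assay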
Description: SANGER: Inhibition of human NCI-H596 cell growth in a cell viability assay.

NCI-H748 = format: functional, cell-based, Homo sapiens; details: Homo sapiens, NCI-H748;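 further: growth inhibition of NCI-H748 cells, measured by a cell viability assay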
Description: SANGER: Inhibition of human NCI-H748 cell growth in a cell viability assay.

NUGC-3 = format: functional, cell-based, Homo sapiens; details: Homo sapiens, NUGC-3;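 further: growth inhibition of human NUGC-3 cells, read out with a cell viability assay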
Description: SANGER: Inhibition of human NUGC-3 cell growth in a cell viability assay.

PA-1 = format: functional, cell-based, Homo sapiens; details: Homo sapiens, PA-1;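 further: IC50 for suppression of PA-1 cell proliferation, determined with a cell viability read-out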
Description: SANGER: Inhibition of human PA-1 cell growth in a cell viability assay.

Panc1005 = format: functional, cell-based, Homo sapiens; details: Homo sapiens, Panc1005;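 further: growth inhibition of human PANC-10-05 cells, measured by a cell viability assay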
Description: SANGER: Inhibition of human PANC-10-05 cell growth in a cell viability assay.

RPMI-7951 = format: functional, cell-based, Homo sapiens; details: Homo sapiens, RPMI-7951
Description: SANGER: Inhibition of human RPMI-7951 cell growth in a cell viability assay.

SCLC-21H = format: functional, cell-based, Homo sapiens; details: Homo sapiens, SCLC-21H;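 further: growth inhibition of cultured human SCLC-21H cells, read out with a cell viability assay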
Description: SANGER: Inhibition of human SCLC-21H cell growth in a cell viability assay.

SK-MEL3 = format: functional, cell-based, Homo sapiens, SK-MEL-3; details: Homo sapiens, SK-MEL3;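 further: growth inhibition of human SK-MEL-3 cells, read out with a cell viability assay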
Description: SANGER: Inhibition of human SK-MEL-3 cell growth in a cell viability assay.

SK-N-AS = format: functional, cell-based, Homo sapiens; details: Homo sapiens, SK-N-AS;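 further: growth inhibition of human SK-N-AS cells, measured with a cell viability assay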
Description: SANGER: Inhibition of human SK-N-AS cell growth in a cell viability assay.

SNU-423 = format: functional, cell-based, Homo sapiens; details: Homo sapiens, SNU-423
Description: SANGER: Inhibition of human SNU-423 cell growth in a cell viability assay.

SUP-T1 = format: functional, cell-based, Homo sapiens; details: Homo sapiens, SUP-T1;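 further: growth inhibition of human SUP-T1 cells, read out as cell viability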
Description: SANGER: Inhibition of human SUP-T1 cell growth in a cell viability assay.

SW1417 = format: functional, cell-based, Homo sapiens; details: Homo sapiens, SW1417;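 further: growth inhibition of human SW1417 cells, read out with a cell viability assay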
Description: SANGER: Inhibition of human SW1417 cell growth in a cell viability assay.

SAOS-2 = format: functional, cell-based, Homo sapiens; details: Homo sapiens, SAOS-2;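 further: growth inhibition of human Saos-2 cells determined by a cell viability assay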
Description: SANGER: Inhibition of human Saos-2 cell growth in a cell viability assay.

A2058 = format: functional, cell-based, Homo sapiens; details: Homo sapiens, A2058;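 further: reduction of A2058 cell growth, read out with a viability assay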
Description: SANGER: Inhibition of human A2058 cell growth in a cell viability assay.

A-427 = format: functional, cell-based, Homo sapiens; details: Homo sapiens, A-427;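 further: growth inhibition of human A-427 cells, read out by a cell viability assay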
Description: SANGER: Inhibition of human A427 cell growth in a cell viability assay.

AU565 = format: functional, cell-based, Homo sapiens; details: Homo sapiens, AU565;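 further: cell viability assay measuring growth inhibition of human AU565 cells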
Description: SANGER: Inhibition of human AU565 cell growth in a cell viability assay.

CAL-148 = format: functional, cell-based, Homo sapiens; details: Homo sapiens, CAL-148
Description: SANGER: Inhibition of human CAL-148 cell growth in a cell viability assay.

CAL-54 = format: functional, cell-based, Homo sapiens; details: Homo sapiens, CAL-54;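 further: growth inhibition of CAL-54 cells, read out by a viability measurement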
Description: SANGER: Inhibition of human CAL-54 cell growth in a cell viability assay.

U-118-MG = format: functional, cell-based, Homo sapiens; details: Homo sapiens, U-118-MG
Description: SANGER: Inhibition of human U-118-MG cell growth in a cell viability assay.

WM-115 = format: functional, cell-based, Homo sapiens; details: Homo sapiens, WM-115
Description: SANGER: Inhibition of human WM-115 cell growth in a cell viability assay.

COLO-679 = format: functional, cell-based, Homo sapiens; details: Homo sapiens, COLO-679
Description: SANGER: Inhibition of human COLO-679 cell growth in a cell viability assay.

In the case of Cc1cc([N+](=O)[O-])ccc1NS(=O)(=O)c1cc(Cl)ccc1Cl, the IC50 (DBTRG-05MG) is reported as 9.11 µM, the IC50 (DoTc2-4510) is reported as 1.52 µM and the IC50 (EB-3) is reported as 4.25 µM. It also gave an IC50 (EGI-1) of 24.8 µM, an IC50 (G-361) of 1770 nM and an IC50 (GDM-1) of 8.37 µM. The IC50 (HCC1569) was 3.48 µM, the IC50 (HT-1080) was 0.675 µM and the IC50 (IGR-1) was 2010 nM. The IC50 (IGROV-1) was 2660 nM, the IC50 (KMS-12-PE) was greater than 32 µM and the IC50 (KYSE-410) was 5.83 µM. It also gave an IC50 (KYSE-510) of 4.84 µM, an IC50 (KYSE-520 cell line) of 27.6 µM and an IC50 (LOUCY) of 20 µM. The IC50 (LU-165) was greater than 32 µM, the IC50 (LU-99A) was 1240 nM and the IC50 (LoVo) was 2000 nM. The IC50 (M14) was greater than 32 µM, the IC50 (MDA-MB-157) was 8.59 µM and the IC50 (MKN-28) was 4.37 µM. For the same compound, the IC50 (NCI-H1963) was 8.68 µM, the IC50 (NCI-H2030) was 4.43 µM and the IC50 (NCI-H2052) was 18.2 µM. The IC50 (NCI-H2141) was greater than 32 µM, the IC50 (NCI-H2170) was 1440 nM and the IC50 (NCI-H596) was 7.95 µM. The IC50 (NCI-H748) was greater than 32 µM, the IC50 (NUGC-3) was 3.65 µM and the IC50 (PA-1) was 2.9 µM. For the same compound, the IC50 (Panc1005) was 5.37 µM, the IC50 (RPMI-7951) was 29.3 µM and the IC50 (SCLC-21H) was 4.84 µM. For the same compound, the IC50 (SK-MEL3) was 4.68 µM, the IC50 (SK-N-AS) was 6.53 µM and the IC50 (SNU-423) was 7.17 µM. The IC50 (SUP-T1) was 5.41 µM, the IC50 (SW1417) was 11.4 µM and the IC50 (SAOS-2) was 6.94 µM. The IC50 (A2058) was 2030 nM, the IC50 (A-427) was 230 nM and the IC50 (AU565) was 2.34 µM. It also gave an IC50 (CAL-148) of 13.7 µM, an IC50 (CAL-54) of 5.44 µM and an IC50 (U-118-MG) greater than 32 µM. For the same compound, the IC50 (WM-115) was greater than 32 µM and the IC50 (COLO-679) was 2.4 µM.
Compound Oc1ccc2ccccc2c1SSc1c(O)ccc2ccccc12 has an IC50 (DBTRG-05MG) greater than 32 µM, an IC50 (DoTc2-4510) of 10.5 µM and an IC50 (EB-3) of 10.5 µM. It also gave an IC50 (EGI-1) greater than 32 µM, an IC50 (G-361) greater than 32000 nM and an IC50 (GDM-1) greater than 32 µM. The IC50 (HCC1569) was greater than 32 µM, the IC50 (HT-1080) was 18.6 µM and the IC50 (IGR-1) was greater than 32000 nM. The IC50 (IGROV-1) was greater than 32000 nM, the IC50 (KMS-12-PE) was greater than 32 µM and the IC50 (KYSE-410) was greater than 32 µM. For the same compound, the IC50 (KYSE-510) was greater than 32 µM, the IC50 (KYSE-520 cell line) was greater than 32 µM and the IC50 (LOUCY) was greater than 32 µM. The IC50 (LU-165) was greater than 32 µM, the IC50 (LU-99A) was greater than 32000 nM and the IC50 (LoVo) was greater than 32000 nM. It also gave an IC50 (M14) greater than 32 µM, an IC50 (MDA-MB-157) greater than 32 µM and an IC50 (MKN-28) of 17.3 µM. The IC50 (NCI-H1963) was greater than 32 µM, the IC50 (NCI-H2030) was greater than 32 µM and the IC50 (NCI-H2052) was greater than 32 µM. For the same compound, the IC50 (NCI-H2141) was greater than 32 µM, the IC50 (NCI-H2170) was greater than 32000 nM and the IC50 (NCI-H596) was greater than 32 µM. For the same compound, the IC50 (NCI-H748) was greater than 32 µM, the IC50 (NUGC-3) was greater than 32 µM and the IC50 (PA-1) was 27.1 µM. For the same compound, the IC50 (Panc1005) was greater than 32 µM, the IC50 (RPMI-7951) was greater than 32 µM and the IC50 (SCLC-21H) was greater than 32 µM. The IC50 (SK-MEL3) was greater than 32 µM, the IC50 (SK-N-AS) was greater than 32 µM and the IC50 (SNU-423) was greater than 32 µM. For the same compound, the IC50 (SUP-T1) was greater than 32 µM, the IC50 (SW1417) was greater than 32 µM and the IC50 (SAOS-2) was greater than 32 µM. The IC50 (A2058) was greater than 32000 nM, the IC50 (A-427) was greater than 32000 nM and the IC50 (AU565) was 31.2 µM. It also gave an IC50 (CAL-148) greater than 32 µM, an IC50 (CAL-54) greater than 32 µM and an IC50 (U-118-MG) greater than 32 µM. The IC50 (WM-115) was greater than 32 µM and the IC50 (COLO-679) was 28.7 µM.
